Data set [1] can be described thus: Circular dichroism of RC-101 at different pH. To be noted: 500 μg/mL in buffer, pH 7 and pH 12 versus pH 3, 0.1 cm cell. It counts as physicochemical. Here is the method:
Changes in the secondary structure of the protein were monitored by Circular dichroism (CD) on an AVIV Circular Dichroism spectrophotometer model 202 (AVIV Biomedical, Lakewood, NJ) equipped with a 0.1 cm path length quartz cell. RC-101 stability was also monitored by using a matrix-assisted laser desorption ionization-time of flight (MALDI-TOF) mass spectrometric (MS) on a Voyager DE-PRO mass spectrometer (Applied Biosystems, Foster City, CA). Potential for aggregation was evaluated by UV-spectroscopy using a NanoDrop ND-1000 spectrophotometer (NanoDrop Technologies Inc, Wilmington, DE).

A short description of data set [2]: Oxidation of RC-101 by hydrogen peroxide, HPLC. To be noted: 500 μg/mL.
Protocol: For all pre-formulation studies described below, triplicate solutions of RC-101 (500 μg/mL) were prepared in either water or aqueous buffer solution. Thermal degradation studies were conducted at 25, 37, and 65°C for a minimum period of 1 week. The effect of pH on the stability of RC-101 was evaluated over the pH range from 3 to 12 using 10 mM phosphate buffer solutions, at low (50 mmol/kg) and high (500 mmol/kg) ionic strength. Oxidation of RC-101 was evaluated by exposing a solution of RC-101 to hydrogen peroxide (H2O2) at concentrations of 3.0, 0.08, and 0.002% (v/v). The high H2O2 concentration (3.0%) was selected as a forced degradation concentration. […] Protection against oxidation was investigated by the addition of antioxidants commonly used in pharmaceutical products. The antioxidants used in this study were: methionine (95.2 μg/mL or 250 μg/mL), cysteine (95.2 μg/mL), glutathione (90.9 μg/mL), vitamin E TPGS (90.9 μg/mL), ascorbic acid (1.0 mg/mL), sodium ascorbate (1.0 mg/mL), and EDTA (1.0 μg/mL).
RC-101 concentration after exposure to preformulation conditions was analyzed by HPLC as previously described [11]. Briefly, the HPLC system (Waters Corporation, Milford, MA) was equipped with an autoinjector model 717, a quaternary pump model 600, and an ultraviolet (UV) detector model 2487 set up at 215 nm. Separation of RC-101 from degradant products was achieved using a Phenomenex Jupiter 5 μC5 300 Å (4.6 × 250 mm) column (Phenomenex, Torrance, CA) protected by a Widepore C5 (4 × 3.0 mm) guard cartridge (Phenomenex). The gradient consisted of mobile phase A (0.1% TFA in water (v/v)), and mobile phase B (0.07% TFA in acetonitrile (v/v)) pumped at a flow rate of 1.0 mL/min. […]
HPLC data obtained from the preformulation studies were expressed as the average percentage of the peak area from time 0 ± standard deviation, n = 3. Results were analyzed by one-way analysis of variance (ANOVA) with multiple comparisons of individual time points by using post hoc Bonferroni correction to detect significant differences under different conditions. […]
Data set [3] can be described thus: Stability in fresh normal human vaginal fluid (HVF), detection by LC-MS/MS. To be noted: for time RC-101 detected in HVF: LC-MS/MS; for detection of RC-101 by LC-MS/MS: nanoLC-SRM MS, qualitative. Here is the method:
Inclusion criteria included ages between 18 and 45 years and agreeing to be abstinent from sexual activity for 48 hours prior to fluid collection. […] After signing informed consent and confirming eligibility, subjects completed a questionnaire and were then instructed on the use of the Instead Softcup® (Instead Inc., La Jolla, CA). Instead Softcup® is a FDA approved device to hold menstrual fluid during the menstrual period in replacement of a tampon or pad. Subjects inserted the cup and waited for 30 min. After this time period, the physician removed the cup, and placed it into a 50 mL conical centrifuge tube. Vaginal fluid collected from healthy volunteer women was stored at 4°C until used, and it was used within 4 h after collection.
The polymeric film solution was prepared as previously described by adding Milli Q water, PVA, and hydroxypropyl methyl cellulose (HPMC). The solution was then heated at 95°C for 20 minutes for complete dissolution of the polymers. […] The plate was placed into a vacuum oven at 30 ± 2°C for 20 ± 4 h. All dried films were removed from the plates and stored at room temperature in PET/Aluminum foil pouches (Amcor Flexibles Healthcare Inc, Mundelein, IL) until further analysis. […] For analytical purposes, films were dissolved in 1 mL of Milli Q water before addition to HVF.
The HVF from the Instead Softcup® was removed by centrifugation of the conical tube for 10 min at 5,000 rpm. […] HVF was then removed from the cup and the pH of each HVF sample was measured with Fisher Alkacid pH filter strips (Fisher Scientific). All samples collected on a specific day were pooled to be used for the research studies. If the pH of the individual samples was higher than 5, the sample was not included in the pool but it was stored at -80°C for separate analysis. If the sample contained blood, it was immediately discarded. Samples were prepared as described in Table 1. […] Because of its high viscosity, HVF was measured by weight and not by volume. […] At each time point, the samples were centrifuged at 10,000 rpm for 10 min to separate the supernatant from the epithelial cells as described in the cell processing section. Both parts (supernatant and cells) were stored at -80 ± C until analyzed by LC-MS/MS. To evaluate the influence of freezing the fluid prior to the analysis, the last pool of HVF was divided into two samples: one used fresh (at the time of collection), and the other one stored at -80°C for a 3-month period. […] HVF samples collected with a high pH value indicative of BV were stored at -80°C as previously mentioned. After confirmation of BV on those fluid samples by Gram stain score, the fluid samples (HVF BV^+) were thawed, pooled, and processed as described in Table 1.
At each time point, the sample was removed from the incubation chamber and centrifuged for 10 min at 10,000 rpm, at 4 ± C to separate the supernatant from cell pellet. Supernatant (100 μL) was added to microcentrifuge filters Ultracel YM-10 Microcon MWCO 10,000 (Millipore Corporation, Bedford, MA), which were pre-washed with Milli Q water to eliminate any trace of propylene glycol from the filters. Samples were centrifuged twice for 15 min at 8,500 rpm, at 4 ± C. The filtrate was collected and frozen at -80 ± C until further analysis. A solution of 3 M urea was added to the cell pellet (1:1 w/w) obtained from the first centrifugation, to lyse the cells. This mixture was vortexed three times for 30 sec, and then centrifuged for 10 min at 10,000 rpm, at 4 ± C. The supernatant obtained from the cell lysate was then added to microcentrifuge filters Ultracel YM-10 Microcon MWCO 10,000 pre-washed with Milli Q water. Samples were centrifuged twice for 15 min at 8,500 rpm, at 4 ± C. The filtrate was collected and frozen at -80 ± C until analysis.

On to “GICRCICGKGICRCICGR (bicyclic or more) [RC-101]”, for which the “CD spectrum: peak shift and loss of absorbance compared to pH 3” value in data set [1] is given as “change in folding”. The “degradation rate compared with 3.0% H2O2” value in data set [2] (0.002% and 0.08% H2O2 (biologically relevant), HPLC) is on record as “slower”. The “loss of RC-101” value in data set [2] (3.0% H2O2 (forced degradation), 4 h, HPLC-UV, n = 3) is given as 20%. Besides, the “time RC-101 detected in HVF” value was “up to 72 h” in data set [3] (another (one) pool of normal HVF, 37°C) and 48 h in data set [3] (two pools of normal HVF, 37°C). In addition, the “detection of RC-101 by LC-MS/MS” value in data set [3] (fresh pooled normal HVF 100 mg + 100 μL (100 μg/mL), 1:1, 37°C, 0 h) is listed as “+”; in data set [3] (fresh pooled normal HVF 1:1, 37°C, 2 h), “+”; in data set [3] (fresh pooled normal HVF 1:1, 37°C, 6 h), “+”; in data set [3] (fresh pooled normal HVF 1:1, 37°C, 12 h), “+”; in data set [3] (fresh pooled normal HVF 1:1, 37°C, 24 h), “+”; in data set [3] (fresh pooled normal HVF 1:1, 37°C, 48 h) it was “+”. Besides, the “detection of RC-101 by LC-MS/MS” value in data set [3] (fresh pooled normal HVF 1:1, 37°C, 72 h, only one pool analyzed) is recorded as “+”. Also, in data set [3] (normal HVF, fresh, undiluted, pooled, 1:1 with RC-101 100 μg/mL, 37°C, LC-MS/MS (SRM), not quantitative, overall of 3 pools), the “time RC-101 detected after exposure to HVF” value is listed as “at least 48 h”.

Source of the values: PMC3199744, “Preformulation and stability in biological fluids of the retrocyclin RC-101, a potential anti-HIV topical microbicide” (AIDS Research and Therapy, 2011).
